Tests used:
[1] = tested on: gut microbiota; assay: FLZ-to-M1 conversion in colonic contents with CYP51 inhibitors; format: in vitro ADME, mice; conditions: FLZ 2 μg/mL with CYP51 inhibitor 8 and 20 μg/mL, 6 h
[2] = tested on: CYP51 in gut microbiota; assay: CYP51 activity in colonic contents; format: biochemical, mice; conditions: inhibitor 8 and 20 μg/mL, 6 h, vs. Control

| Concentration of FLZ in the colonic contents [1] | Concentration of M1 in the colonic contents [1] | Ratio of M1/FLZ in gut microbiota [1] | Structure (SMILES) | Activity of CYP51 in the reaction system of colonic contents [2] |
| --- | --- | --- | --- | --- |
| increased | decreased | reduced | CCC(C)n1ncn(-c2ccc(N3CCN(c4ccc(OCC5COC(Cn6cncn6)(c6ccc(Cl)cc6Cl)O5)cc4)CC3)cc2)c1=O (stereo not shown) [itraconazole] | inhibited |
| increased | decreased | – | C[C@@H](c1ncncc1F)[C@](O)(Cn1cncn1)c1ccc(F)cc1F [voriconazole] | inhibited |

From PMC8148066 (Acta Pharmaceutica Sinica. B, 2021)
